≈ marks a conversion by molar mass, not a printed value. Calls of active or inactive are those of the source. No cut-off for these calls is given here.
Legend:
Escherichia coli [1] = assay: Antibacterial activity against Escherichia coli isolate HM154 isolated from colonic mucosal biopsies of patient with Crohn's disease after 24 hrs by Etest antibiotic concentration gradient method; assay type: functional; settings: isolate HM154, 24 h
Escherichia coli [2] = assay: Antibacterial activity against Escherichia coli K-12 after 24 hrs by Etest antibiotic concentration gradient method; assay type: functional; settings: K-12, 24 h
Escherichia coli [3] = assay: Antibacterial activity Escherichia coli isolate HM413 isolated from ileo-colonic mucosal biopsies of patient with Crohn's disease after 24 hrs by Etest antibiotic concentration gradient method; assay type: functional; settings: isolate HM413, 24 h
Escherichia coli [4] = assay: Antibacterial activity against gentamicin-treated internalized Escherichia coli isolate HM605 in mouse J774A1 cells isolated from colonic mucosal biopsies of patient with Crohn's disease assessed as intracellular killing of bacteria at 10% compound Cmax after 3 hrs; assay type: functional, J774.A1
J774.A1 [5] = assay: Cytotoxicity against mouse J774A1 cells assessed as release of adenylate kinase at 100 ug/ml after 3 hrs […] relative to control; assay type: cell-based; settings: j774.a1, 3 h
J774.A1 [6] = assay: Cytotoxicity against mouse J774A1 cells assessed as macrophage number at […] ug/ml after 3 hrs by total cell protein assay; assay type: cell-based; settings: j774.a1, 3 h
Escherichia coli [7] = assay: Antibacterial activity against mucosa-associated Escherichia coli isolate HM456 isolated from patient with irritable bowel syndrome or sporadic polyps after 24 hrs by Etest antibiotic concentration gradient method; assay type: functional; settings: isolate HM456, 24 h
Escherichia coli [8] = assay: Antibacterial activity against Escherichia coli isolate HM615 isolated from colonic mucosal biopsies of patient with Crohn's disease after 24 hrs by Etest antibiotic concentration gradient method; assay type: functional; settings: isolate HM615, 24 h
Escherichia coli [9] = assay: Antibacterial activity against Escherichia coli isolates isolated from patients with Crohn's disease at 5 ug/disk by susceptibility testing disk method; assay type: functional
Escherichia coli [10] = assay: Antibacterial activity against gentamicin-treated internalized Escherichia coli isolate HM605 isolated from colonic mucosal biopsies of patient with Crohn's disease in mouse J774A1 cells assessed as intracellular killing of bacteria at […] ug/ml after 3 hrs; assay type: functional, J774.A1
Escherichia coli [11] = assay: Antibacterial activity Escherichia coli isolate HM419 isolated from ileo-colonic mucosal biopsies of patient with Crohn's disease after 24 hrs by Etest antibiotic concentration gradient method; assay type: functional; settings: isolate HM419, 24 h
Escherichia coli [12] = assay: Antibacterial activity against Escherichia coli isolate HM95 isolated from ileal mucosal biopsies of patient with Crohn's disease after 24 hrs by Etest antibiotic concentration gradient method; assay type: functional; settings: isolate HM95, 24 h
Escherichia coli [13] = assay: Antibacterial activity against gentamicin-treated internalized Escherichia coli isolate HM615 in mouse J774A1 cells isolated from colonic mucosal biopsies of patient with Crohn's disease assessed as intracellular killing of bacteria at 10% compound Cmax after 3 hrs; assay type: functional, J774.A1
Escherichia coli [14] = assay: Antibacterial activity against gentamicin-treated internalized Escherichia coli isolate LF82 in mouse J774A1 cells isolated from chronic ileal lesions of patient with Crohn's disease assessed as intracellular killing of bacteria at 10% compound Cmax after 3 hrs; assay type: functional, J774.A1
Escherichia coli [15] = assay: Antibacterial activity against mucosa-associated Escherichia coli isolate HM454 isolated from patient with irritable bowel syndrome or sporadic polyps after 24 hrs by Etest antibiotic concentration gradient method; assay type: functional; settings: isolate HM454, 24 h
Escherichia coli [16] = assay: Antibacterial activity against extracellular Escherichia coli isolate HM605 isolated from colonic mucosal biopsies of patient with Crohn's disease at 0.01 to 10 ug/ml after 3 hrs; assay type: functional, organism-based
Escherichia coli [17] = assay: Antibacterial activity against gentamicin-treated internalized Escherichia coli isolate HM580 in mouse J774A1 cells isolated from colonic mucosal biopsies of patient with Crohn's disease assessed as intracellular killing of bacteria at 10% compound Cmax after 3 hrs; assay type: functional, J774.A1
Escherichia coli [18] = assay: Antibacterial activity against Escherichia coli isolate HM580 isolated from colonic mucosal biopsies of patient with Crohn's disease after 24 hrs by Etest antibiotic concentration gradient method; assay type: functional; settings: isolate HM580, 24 h
Escherichia coli [19] = assay: Antibacterial activity against Escherichia coli isolate HM605 isolated from colonic mucosal biopsies of patient with Crohn's disease after 24 hrs by Etest antibiotic concentration gradient method; assay type: functional; settings: isolate HM605, 24 h
Escherichia coli [20] = assay: Antibacterial activity against Escherichia coli isolate HM605 isolated from colonic mucosal biopsies of patient with Crohn's disease
Escherichia coli [21] = assay: Antibacterial activity against mucosa-associated Escherichia coli isolate HM428 isolated from patient with irritable bowel syndrome or sporadic polyps after 24 hrs by Etest antibiotic concentration gradient method; assay type: functional; settings: isolate HM428, 24 h
[22] = Cmax in immunodeficiency virus-infected patient at 800 mg, po by high-pressure liquid chromatography; settings: human, in vivo
Escherichia coli [23] = assay: Antibacterial activity against Escherichia coli ATCC 25922 after 24 hrs by Etest antibiotic concentration gradient method; assay type: functional, organism-based
J774.A1 [24] = assay: Cytotoxicity against mouse J774A1 cells assessed as macrophage number at 1.7 ug/ml after 3 hrs by total cell protein assay; assay type: cell-based; settings: j774.a1, 3 h
Escherichia coli [25] = assay: Antibacterial activity against gentamicin-treated internalized Escherichia coli isolate HM605 isolated from colonic mucosal biopsies of patient with Crohn's disease in mouse J774A1 cells assessed as intracellular killing of bacteria at 1.7 ug/ml after 3 hrs; assay type: functional, J774.A1
Escherichia coli [26] = assay: Antibacterial activity against mucosa-associated Escherichia coli isolates isolated from patients with Crohn's disease by disk diffusion method; assay type: functional
[27] = Cmax in patient with Billroth-II gastrectomy at 250 mg, po; assay type: ADME, organism-based; set-up: dose 250 mg, route oral; settings: human, in vivo
[28] = Cmax in healthy human at 160 mg administered orally; settings: in vivo, po
Homo sapiens = organism: Homo sapiens; assay: Cmax in human; assay type: ADME, organism-based; settings: in vivo
Escherichia coli [29] = assay: Antibacterial activity against gentamicin-treated internalized Escherichia coli isolate HM605 in mouse J774A1 cells isolated from colonic mucosal biopsies of patient with Crohn's disease assessed as intracellular killing of bacteria at 18 ug/ml after 3 hrs; assay type: functional, organism-based; settings: J774.A1
Escherichia coli [30] = assay: Antibacterial activity against gentamicin-treated internalized Escherichia coli isolate HM605 in mouse J774A1 cells isolated from colonic mucosal biopsies of patient with Crohn's disease assessed as reduction in intracellular bacterial viability at 18 ug/ml after 24 hrs; assay type: functional, organism-based; settings: J774.A1
Escherichia coli [31] = assay: Antibacterial activity against gentamicin-treated internalized Escherichia coli isolate HM605 in mouse J774A1 cells isolated from colonic mucosal biopsies of patient with Crohn's disease assessed as intracellular killing of bacteria at 18 ug/ml after 6 hrs; assay type: functional, organism-based; settings: J774.A1

Row | Molecule | MIC (Escherichia coli [1]) [µg/mL] | MIC (Escherichia coli [3]) [µg/mL] | Activity (Escherichia coli [4]) [%] | Activity (J774.A1 [5]) [%] | MIC (Escherichia coli [7]) [µg/mL] | MIC (Escherichia coli [8]) [µg/mL] | MIC (Escherichia coli [11]) [µg/mL] | MIC (Escherichia coli [12]) [µg/mL] | Activity (Escherichia coli [13]) [%] | Activity (Escherichia coli [14]) [%] | Activity (Escherichia coli [16]) | Activity (Escherichia coli [17]) [%] | MIC (Escherichia coli [18]) [µg/mL] | MIC (Escherichia coli [19]) [µg/mL] | MBC (Escherichia coli [20]) [µg/mL] | MIC (Escherichia coli [21]) [µg/mL] | Activity (Escherichia coli [23]) | Activity (Escherichia coli [26]) [%] | further results
1 | CO[C@H]1/C=C/O[C@@]2(C)Oc3c(C)c(O)c4c(O)c(c(/C=N/N5CCN(C)CC5)c(O)c4c3C2=O)NC(=O)/C(C)=C\C=C\[C@H](C)[C@H](O)[C@@H](C)[C@@H](O)[C@@H](C)[C@H](OC(C)=O)[C@@H]1C [RIFAMPIN] | ≥ 4 | 2 (≈ 2.43 µM) | 32.6 | 90 | ≥ 4 | ≥ 4 | ≥ 4 | ≥ 4 | 80.2 | 32.8 | Active | 35.8 | ≥ 4 | 6 (≈ 7.29 µM) | 3 (≈ 3.65 µM) | ≥ 4 | – | – | MIC (Escherichia coli [2]): 3 µg/mL (≈ 3.65 µM); Activity (J774.A1 [6]): 94.4; Activity (Escherichia coli [9]): 0%; Activity (Escherichia coli [10]): 85.1%; MIC (Escherichia coli [15]): ≥ 4 µg/mL
2 | Cc1cc(NS(=O)(=O)c2ccc(N)cc2)no1 [SULFAMETHOXAZOLE] | – | – | 39.8 | 90 | – | – | – | – | 71.5 | 63.2 | – | 58.7 | – | > 1020 | – | – | Active | – | Cmax [22]: 40000 ng/mL
3 | CN(C)[C@@H]1C(O)=C(C(N)=O)C(=O)[C@@]2(O)C(O)=C3C(=O)c4c(O)cccc4[C@@](C)(O)[C@H]3C[C@@H]12 [TETRACYCLINE] | ≤ 4 | ≤ 4 | 44.8 | 90 | ≤ 4 | ≤ 4 | ≤ 4 | ≤ 4 | 69.6 | 64.2 | Active | 62.4 | ≤ 4 | 2 (≈ 4.5 µM) | 1 (≈ 2.25 µM) | ≤ 4 | Active | 67 | Activity (J774.A1 [24]): 55.9; Activity (Escherichia coli [25]): 62.8%; Cmax [27]: 1700 ng/mL
4 | COc1cc(Cc2cnc(N)nc2N)cc(OC)c1OC [TRIMETHOPRIM] | ≤ 4 | ≤ 4 | 49.1 | 90 | ≤ 4 | ≤ 4 | ≤ 4 | ≤ 4 | 61.7 | 50.2 | Active | 46.9 | ≤ 4 | > 32 | 100 (≈ 344 µM) | ≤ 4 | Active | 100 | Cmax [28]: 2300 ng/mL
5 | GENTAMICIN [listing 1 of 2 here] | – | – | – | 90 | – | – | – | – | – | – | – | – | – | – | – | – | – | – | Cmax (Homo sapiens): 18000 ng/mL
6 | GENTAMICIN [listing 2 of 2 here] | – | – | – | – | – | – | – | – | – | – | – | – | – | – | – | – | – | 100 | Activity (Escherichia coli [29]): 7.8%; Activity (Escherichia coli [30]): 54.8%; Activity (Escherichia coli [31]): 0.3%

From ChEMBL document CHEMBL1151474, “Replication of Colonic Crohn's Disease Mucosal Escherichia coli Isolates within Macrophages and Their Susceptibility to Antibiotics” (Antimicrob Agents Chemother, 2008)
